# Like-named read-outs stand apart in the source and are kept apart here.
# Columns and labels:
# alpha-glucosidase enzyme [1] = assay: Alpha-glucosidase inhibitory activity, enzymatic assay with pNPG; type: biochemical, Saccharomyces cerevisiae; conditions: for IC50: purchased standards, DMSO co-solvent not more than 5%
# Experimental: All extracts and isolated compounds were examined for their alpha-glucosidase inhibitory activity according to Dej-adisai and Pitakput, 2015 [23]. Briefly, 0.01 M phosphate buffer (50 μL), samples or standard solution (50 μL), and alpha-glucosidase enzyme solution (50 μL) were added to the well plate. The mixture solution was incubated at 37 °C for 2 min. Next, para-nitrophenyl-α-D-glucopyranoside solution (50 μL) was added. The enzymatic inhibition was evaluated from the yellow final product, p-nitrophenol (pNP). The color of the reaction was detected by visible light at 405 nm of SPECTROstar Nano spectrophotometer (BMG Labtech, Ortenberg, Germany). The product absorption was converted to velocity (V) by using Equation (1). Then, the velocity was used to calculated the percentage of inhibition by Equation (2). Furthermore, the ability of sample was performed by IC50 value, which was generated from the calibration curve of percentages of inhibition at five different sample concentrations. Velocity = ∆ Absorbance at 405 nm/∆ Time(1) % Inhibition = [(Vcontrol − Vsample)/Vcontrol] × 100(2)
# alpha-glucosidase enzyme [2] = assay: Enzyme kinetic study (Lineweaver-Burk plot, secondary plot); type: biochemical, Saccharomyces cerevisieae
# Experimental: To determine the mode of inhibition, the enzyme kinetic procedure was performed as described by Sakulkeo et al.. The double reciprocal Lineweaver–Burk plot was constructed and used for the mode of action determination. The inhibition constant (Ki) was conducted from the secondary plot. Briefly, the 5 concentrations of substrate pNPG (2.5–0.125 mM), the enzyme from Saccharomyces cerevisieae (EC 3.2.1.20) at 1 unit/mL, and 3 concentrations of sample were tested in triplicate.
# alpha-glucosidase enzyme [3] = conditions: cited from earlier work
smiles,measurement,setting,value
"C[C@H]1O[C@H](O[C@H]2[C@H](O)[C@@H](O)[C@@H](O[C@H]3[C@H](O)[C@@H](O)C(O)O[C@@H]3CO)O[C@@H]2CO)[C@H](O)[C@@H](O)[C@@H]1N[C@H]1C=C(CO)[C@@H](O)[C@H](O)[C@H]1O (stereo partly drawn) [Acarbose, acarbose, reference compound]",% Inhibition at 200 μg/mL,alpha-glucosidase enzyme [1]; alpha-glucosidase,45.27 ± 4.5%
same,% Inhibition at 400 μg/mL,alpha-glucosidase enzyme [1]; alpha-glucosidase,60.78 ± 3.61%
same,% Inhibition at 2 mg/mL,"alpha-glucosidase enzyme [1]; alpha-glucosidase, sample at 2 mg/mL",76.44 ± 3.06%
same,Inhibition Type,alpha-glucosidase enzyme [2],Competitive
"COc1cc(O)c2c(=O)c(OC)c(-c3cc(O)c(OC)c(OC)c3)oc2c1 [Compound 1, myricetin 3, 4′, 5′, 7-tetramethyl ether]",% Inhibition at 400 μg/mL,alpha-glucosidase enzyme [1]; alpha-glucosidase,12.78 ± 4.89%
"COc1cc(O)c2c(=O)c(OC)c(-c3cc(OC)c(OC)c(OC)c3)oc2c1 [Compound 2, 5-hydroxy-3,7,3′,4′,5′-pentamethoxyflavone]",% Inhibition at 400 μg/mL,alpha-glucosidase enzyme [1]; alpha-glucosidase,8.51 ± 3.79%
"O=c1c(O)c(-c2ccc(O)cc2)oc2cc(O)cc(O)c12 [Compound 3, kaempferol]",% Inhibition at 400 μg/mL,alpha-glucosidase enzyme [1]; alpha-glucosidase,13.01 ± 2.69%
same,IC50,alpha-glucosidase enzyme [1],585.63 µg/mL
same,Inhibition Type,alpha-glucosidase enzyme [2]; listed as Kaempferol,Mixed
same,Inhibition Type,alpha-glucosidase enzyme [2]; listed as kaempferol,mixed-type
same,Inhibition Type,"alpha-glucosidase enzyme [3]; ref [13],[14]",mixed-type
same,Inhibition Type,alpha-glucosidase enzyme [3]; ref [15],non-competitive
"O=c1c(O)c(-c2ccc(O)cc2)oc2cc(O[C@@H]3O[C@H](CO)[C@@H](O)[C@H](O)[C@H]3O)cc(O)c12 [Compound 4, kaempferol 7-O-β-glucopyranoside]",% Inhibition at 400 μg/mL,alpha-glucosidase enzyme [1]; alpha-glucosidase,7.68 ± 0.33%
"COc1cc(O)c2c(=O)c(OC)c(-c3cc(OC)c(OC)c(OC4OC(CO)C(O)C(O)C4O)c3)oc2c1 (stereo not drawn) [Compound 5, 5-hydroxy 3-7-4′-5′-tetramethoxyflavone-3′-O-glucopyranoside]",% Inhibition at 200 μg/mL,alpha-glucosidase enzyme [1]; alpha-glucosidase,0.84 ± 0.21%
"O=c1c(OC2O[C@H](CO)[C@@H](O)[C@H](O)[C@H]2O)c(-c2ccc(O)cc2)oc2cc(O)cc(O)c12 (stereo partly drawn) [Compound 6b, kaempferol 3-O-glucopyranoside]",IC50,alpha-glucosidase enzyme [1],>600 µg/mL
same,Inhibition Type,alpha-glucosidase enzyme [2]; listed as Astragalin,Mixed
same,Inhibition Type,alpha-glucosidase enzyme [2]; listed as astragalin,mixed-type
same,Inhibition Type,alpha-glucosidase enzyme [3]; ref [16],non-competitive
